The record followed here is paper PMC3560175 (Virology Journal, 2012).

Data set [1] has as its system wild type VSV-G pseudotyped HIV-1 vector. Nature of the data set: microbe, parasite or virus in culture. Particulars: Human immunodeficiency virus 1, HEK-293T; 293T cells, average ± SD of two independent experiments in duplicate; read-out: Antiviral EC50 wt. The format is cell-based.
Data set [2] relates to Y188L RT mutant VSV-G pseudotyped HIV-1 vector. It counts as cell-based. Particulars: read-out: Antiviral EC50 Y188L.
The test system of data set [3] is Y181C RT mutant VSV-G pseudotyped HIV-1 vector. The format is cell-based. The following applies: read-out: Antiviral EC50 Y181C.
For data set [4], the system named is V106A RT mutant VSV-G pseudotyped HIV-1 vector. The format is cell-based. The following applies: read-out: Antiviral EC50 V106A.
The subject of data set [5] is K103N RT mutant VSV-G pseudotyped HIV-1 vector. It counts as cell-based. The following applies: read-out: Antiviral EC50 K103N.
The next data set is described as follows: in vitro. Particulars: human.
For data set [6], the system named is VSVg-pseudotyped HIV-1 vector (pNL4-3LucR+E-). Kind of data set: microbe, parasite or virus in culture. It counts as cell-based.
A further data set has as its system pLai3Luc2 HIV-1 vector. Kind of data set: microbe, parasite or virus in culture. The format is cell-based.
In data set [7] the test system is HIV-1 vector (NL4-3 Nef + IRES rluc). Kind of data set: microbe, parasite or virus in culture. It counts as cell-based.
Data set [8] relates to early and late HIV-1 reverse transcription products. Kind of data set: Real-time PCR quantitation of early and late viral DNA in infected 293T cells. The format is cell-based. Particulars: 5 μM added 1 hr before infection, 24 hrs post infection. Background: In qPCR the cycle at which signal appears reflects the starting amount.
The target of data set [9] is T1, HIV-1 reverse transcriptase (RT) (Human immunodeficiency virus type 1 group M subtype B, UniProt P03366).
T1 construct: recombinant purified HIV-1 reverse transcriptase (RT) activity; purchased Ambion, Austin, TX
Kind of data set: biochemical.

In data set [10] the test system is VSVg-pseudotyped HIV-1 vector. The format is cell-based.

Description for PBMCs: PBMCs were activated in PBMC Growth Medium (RPMI 1640 with 15% FBS, Pen/Strep, 25 mM HEPES, 100 U/ml IL-2) supplemented with 5 μg/ml PHA-P. Two days after activation, the PBMC’s were maintained in the same medium (without PHA-P) for 3 more days. Aliquots of 2x10^4 PBMCs were then plated in 80 μl PBMC Growth Medium in each well of white 96 well plates (CoStar) and returned to the incubator overnight. […] Eight replicate samples were then set up, with 10 μl aliquots of the serially-diluted compounds added to the cells, and preincubated at 37°C for one hour prior to virus challenge. The cells were then challenged with 10 μl per well of the NL4-3 Nef+ IRES rluc virus vector bringing the total volume in each well to 100 μl final. The plates were incubated at 37°C for five days and then viral infection was monitored by adding 100 μl per well of Renilla-Glo Luciferase Reagent (Promega) and measuring the resultant luciferase activities using a Topcount-HTS (PerkinElmer). Cell toxicity was assessed on a duplicate plate of samples by adding 100 μl Cell-Titer Glo Reagent (Promega) and reading on a Topcount-HTS.

Turning to `Cc1cn([C@H]2C[C@H](N=[N+]=[N-])[C@@H](CO)O2)c(=O)[nH]c1=O` [AZT, 3’-azido-3’-deoxythymidine], the EC50 stood at 14 ± 3 nM in data set [1]; 11 ± 5 nM in data set [2]; 6 nM in data set [3]; 15 ± 1 nM in data set [4]; 14 ± 2 nM in [5]. The CC50 at 24 h in “in vitro” is more than 50000 nM.

Regarding `Clc1ccccc1-c1nc2ccccn2c1NC1CCCCC1` [F2], in data set [6], the “decrease of luciferase activity (library screen)” value is recorded as “more than 50%”. The results for the selectivity index (in data set [6]; in the data set on pLai3Luc2 HIV-1 vector; in [7]) were 88.1, 29.5 and more than 11.6, respectively. Besides, the EC50 was 387 ± 46 nM in data set [6] (Human immunodeficiency virus 1, HEK-293T, read-out: EC50 (luciferase-based infectivity)); 862 ± 88 nM in the data set on pLai3Luc2 HIV-1 vector (Human immunodeficiency virus 1, CEM-GFP, 48 h); 865 ± 222 nM in data set [7] (Human immunodeficiency virus 1, NL43, PBMC, 120 h); 165 ± 39 nM in [1]; more than 20000 nM in data set [2]; 1680 ± 271 nM in data set [3]. Further, the EC50 amounted to 1280 ± 357 nM in [4] and 3230 ± 127 nM in data set [5]. For the same molecule, in data set [8], the “synthesis of early and late viral DNA products” value is “blocked the synthesis of both early and late viral DNA products”. For the same molecule, the 50% inhibitory concentration (IC50) in [9] was 2550 ± 365 nM. The “combination effect with AZT (isobologram)” value in data set [10] is “synergy”. Also, the “combination effect with NVP (isobologram)” value in [10] is reported as “additivity”. Moreover, the cell toxicity entry in the data set with PBMCs is on record as “absence of cell toxicity”.

`Cc1ccnc2c1NC(=O)c1cccnc1N2C1CC1` [NVP, nevirapine]: the EC50 in data set [1] is 19 ± 2 nM; in data set [2] it was more than 20000 nM; in data set [3], 2879 ± 6 nM; in data set [4], 1260 ± 159 nM; in data set [5], 841 ± 49 nM. In the data set “in vitro”, this molecule displayed a CC50 of more than 50000 nM.

Usually EC50 stands for the midpoint of the concentration-response curve. One may read the IC50 as the concentration needed to halve the response being measured. A high value points to lower potency.
